Source: PubChem BioAssay AID256 (DTP/NCI, 2004)
Toxic doses and inconclusive results are not listed. How the source made its calls: active means survival T/C of 150% or more; inactive means T/C below 125% in these data.

Test system: CD2F1 mice, L1210 leukemia ip, survival T/C
Test: NCI In Vivo Anticancer Drug Screen. Data for tumor model L1210 Leukemia (intraperitoneal) in CD2F1 (CDF1) mice
Details: endpoint: mean survival time, higher = longer survival
Procedure, shortened: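 Activity against a transplanted murine tumor was judged by comparing the compound group with a vehicle group. The outcome in the treated animals was divided by that in the controls.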

[1] = dose: 12.5 mg/kg/injection, schedule: Q01DX005 (ip), vehicle: distilled water + Tween-80
[2] = dose: 25.0 mg/kg/injection, schedule: Q01DX005 (ip), vehicle: distilled water + Tween-80
[3] = dose: 50.0 mg/kg/injection, schedule: Q01DX005 (ip), vehicle: distilled water + Tween-80
[4] = dose: 100.0 mg/kg/injection, schedule: Q01DX005 (ip), vehicle: distilled water + Tween-80
[5] = dose: 200.0 mg/kg/injection, schedule: Q01DX005 (ip), vehicle: distilled water + Tween-80
[6] = dose: 50.0 mg/kg/injection, schedule: Q01DX009 (ip), vehicle: saline with Tween-80
[7] = dose: 100.0 mg/kg/injection, schedule: Q01DX009 (ip), vehicle: saline with Tween-80
[8] = dose: 100.0 mg/kg/injection, schedule: Q04DX003 (ip), vehicle: saline with Tween-80
[9] = dose: 200.0 mg/kg/injection, schedule: Q01DX009 (ip), vehicle: saline with Tween-80

Measured: T/C

Nc1cc2c(nnn2C2OC(CO)C(O)C2O)c(=O)[nH]1 (stereo unspecified)
inactive: [1] 98 % of control | [2] 98 % of control | [3] 102 % of control | [4] 98 % of control | [5] 88 % of control

C=CCNC(=O)C[n+]1cccc(C(=O)Nc2ccc(Cl)cc2)c1
inactive: dose: 25.0 mg/kg/injection, schedule: Q01DX009 (ip), vehicle: saline with Tween-80 97 % of control | [6] 96 % of control | [7] 102 % of control | [8] 107 % of control

Cc1cc(NC(=O)NCCOc2ccc(N3C(N)=NC(N)=NC3(C)C)cc2Cl)ccc1S(=O)(=O)F
inactive: dose: 12.5 mg/kg/injection, schedule: Q04DX003 (ip), vehicle: saline with Tween-80 107 % of control | dose: 25.0 mg/kg/injection, schedule: Q04DX003 (ip), vehicle: saline with Tween-80 102 % of control | dose: 50.0 mg/kg/injection, schedule: Q04DX003 (ip), vehicle: saline with Tween-80 91 % of control

CN1CSC(=S)N(Cc2ccccc2)C1
inactive: [7] 93 % of control | [9] 93 % of control | dose: 400.0 mg/kg/injection, schedule: Q01DX009 (ip), vehicle: saline with Tween-80 93 % of control

O=C(COc1ccc(Cl)cc1C(=O)O)NCc1ccc(NC(=O)Nc2ccc(S(=O)(=O)F)cc2)cc1
inactive: dose: 100.0 mg/kg/injection, schedule: Q01DX001 (ip), vehicle: saline with Tween-80 96 % of control | dose: 200.0 mg/kg/injection, schedule: Q01DX001 (ip), vehicle: saline with Tween-80 91 % of control | dose: 400.0 mg/kg/injection, schedule: Q01DX001 (ip), vehicle: saline with Tween-80 91 % of control

C1CC[N-]CC1.[Cl][Pt+2][Cl].[NH-]C1CC1
inactive: dose: 3.0 mg/kg/injection, schedule: Q04DX003 (ip), vehicle: water 100 % of control | dose: 6.25 mg/kg/injection, schedule: Q01DX009 (ip), vehicle: distilled water + Tween-80 120 % of control | dose: 6.25 mg/kg/injection, schedule: Q01DX009 (ip), vehicle: water 118 % of control | dose: 25.0 mg/kg/injection, schedule: Q01DX009 (ip), vehicle: water 119 % of control | dose: 25.0 mg/kg/injection, schedule: Q04DX003 (ip), vehicle: distilled water + Tween-80 90 % of control | dose: 25.0 mg/kg/injection, schedule: Q04DX003 (ip), vehicle: water 90 % of control

Cc1cn(C2CC(O)C(COP(N)(N)=O)O2)c(=O)[nH]c1=O (stereo unspecified)
inactive: [1] 98 % of control | [2] 98 % of control | [3] 98 % of control | [4] 96 % of control | [5] 98 % of control

C=C(CC(=O)O)C(=O)O (tested in a mixture with another compound)
inactive: [6] 108 % of control | [7] 120 % of control | [8] 102 % of control | [9] 105 % of control | dose: 200.0 mg/kg/injection, schedule: Q04DX003 (ip), vehicle: saline with Tween-80 102 % of control

O=S(O)c1ccccc1
inactive: dose: 100.0 mg/kg/injection, schedule: Q01DX001 (ip), vehicle: saline 92 % of control | dose: 200.0 mg/kg/injection, schedule: Q01DX001 (ip), vehicle: saline 94 % of control | dose: 400.0 mg/kg/injection, schedule: Q01DX001 (ip), vehicle: saline 110 % of control

C=C1C(=O)OC2/C=C(\CO)CC/C=C(\CO)CC(OC(=O)C(C)C)C12 (stereo unspecified)
inactive: dose: 3.75 mg/kg/injection, schedule: Q01DX009 (ip), vehicle: Klucel (hydroxypropylcellulose) (HPC) 100 % of control | dose: 7.5 mg/kg/injection, schedule: Q01DX009 (ip), vehicle: Klucel (hydroxypropylcellulose) (HPC) 88 % of control | dose: 15.0 mg/kg/injection, schedule: Q01DX009 (ip), vehicle: Klucel (hydroxypropylcellulose) (HPC) 97 % of control | dose: 30.0 mg/kg/injection, schedule: Q01DX009 (ip), vehicle: Klucel (hydroxypropylcellulose) (HPC) 105 % of control
